Patent publication US20110130425A1, “Use of H3 Histaminergic Agonists for the Treatment of Addiction to Drugs of Abuse” (priority 2009, published 2011)
Entries after “also recorded” stand apart in the source; their conditions may differ.

How the values were obtained:
[1] = test system: reinforcing effects of methamphetamine; conditions: rat self-administration model; Munzar et al., 2004; cited from earlier work
[2] = test system: relapse into cocaine seeking; assay: Relapse phase: rehabilitation test, relapse induced by a single dose of cocaine; type: in vivo, rat; conditions: rats
Excerpt: III. Relapse Phase: The relapse phase is studied by using a rehabilitation test. In this phase, the desire of the rats for the drug is again induced by the administration of a single dose of drug. At this instant, the rat again feels the desire to obtain the drug, and so it again begins to press on the lever to obtain the drug, but the drug is not available to the animal.
The behavior of the rats was also studied during the relapse phase, after the animals had gone through the extinction phase. In the extinction phase, the animals received no reward (dose of cocaine) when they pressed the lever. After a minimum of six extinction sessions, lasting 2 hours each session, carried out on consecutive days, the lever-pressing behavior of the rats diminished at least 20 times in comparison to the start of the extinction sessions.
When the number of times that the rats pressed the lever decreased, the animals were subjected to 4 hour rehabilitation sessions (i.e., relapse sessions). These rehabilitation sessions consisted initially of extinction sessions of 3 hours, followed by the automatic release, by an injection, of a saline solution or different doses of cocaine. During the fourth hour, the behavior of the animals was studied in regard to the number of times that they pressed the lever after the administration of the different doses of cocaine (0 mg/kg, 0.5 mg/kg and 2 mg/kg). The number of times that the lever was pressed increased in proportion to the dose of cocaine administered (cocaine at 0.5 mg/kg or 2 mg/kg administered intravenously, or saline in controls) (FIG. 8). However, this increase in the number of times that the animals pressed the lever was not rewarded with the administration of more cocaine. The number of times that the rats pressed the lever was indicative of the rat's need to find the drug. Even so, the pressing of the lever was not rewarded with more cocaine, which differentiates this stage from that corresponding to self-administration. […]

cocaine craving = assay: Extinction phase: cocaine craving (lever pressing with drug no longer available); type: in vivo, rat
Excerpt: II. Extinction Phase: In this phase, the drug ceases to be available to the rats. During the extinction session, the animal learns, suddenly, that the drug can no longer be obtained by pressing the lever, which directs the rat toward an initial impulse of drug seeking. During the extinction session, one estimates the degree of the irrepressible desire of the rat for the drug (craving). After repeated extinction sessions, animals learn to reduce lever pressing and are ready for relapse testing.
Training was conducted in Skinner cages. Rats were trained to tap a lever to obtain saccharose. […] Once the training to obtain saccharose was complete, the rats had access to food ad libitum during the rest of the procedure. An intravenous catheter was subsequently implanted in the jugular vein. The catheter passed underneath the skin to reach the shoulder of the animal, where it was secured with a surgical gauze.
After 3-4 days of recovery, the animals were subjected, in the Skinner cages, to daily sessions of intravenous self-administration of 0.5 mg/kg doses of cocaine each time that they pressed an active lever. […] When this second lever was pressed by the animal, no drug was administered. The self-administration sessions lasted for 2 hours a day, 5 days a week, for at least six weeks.
The third self-administration protocol required the animals to press the lever five times to obtain the cocaine reinforcement.
Rats that succeeded in learning to self-administer the drug according to all three protocols described above were selected to test out the efficiency of the treatment with H3 histaminergic agonists in the extinction and relapse phases.
Drug craving, in this particular case cocaine craving, associated with the unexpected commencement of the extinction phase was studied once the animals had been self-administering the drug daily for at least six weeks.
The experiments began with the self-administration of cocaine for one hour. After this initial self-administration, the rats were divided into two groups. […]

[3] = test system: cocaine self-administration; assay: Same protocol with lever pressing rewarded with drug during the second hour (resumption of self-administration); type: in vivo, rat
Protocol: In order to differentiate the drug seeking from the reward phenomenon, the same protocol as described above was used, with the proviso that the pressing of the lever was rewarded with drug during the second hour. In the control experiments, when the rats were treated with saline solution, a relatively stable pressing of the lever over the course of time was observed (FIG. 3).
These same rats, days afterwards, were subjected in random order to treatment with saline solution or imetit in doses of 10 mg/kg. After these treatments, the rats recovered stability by means of three sessions of self-administration of drug. […] This decrease was significant for the first 40 minutes of the self-administration period, as compared to the control rats that were pretreated with a saline solution. Thus, over the course of time, the desire for the drug reappeared.

[4] = test system: reinforcement produced by cocaine; assay: Reinforcement phase: cocaine self-administration dose/response; type: in vivo, rat; conditions: rats

Compound	reinforcing effects of methamphetamine [1]	lever pressing after relapse induced by a single dose of cocaine ([2]; imetit 3 mg/kg one hour before, cocaine 0.5 mg/kg, vs saline)	tapping of the lever in the first 20 minutes of extinction (cocaine craving; imetit 3 mg/kg i.v. single dose, vs control rats)	latency (time until the rats pressed the lever for the first time) at start of extinction (cocaine craving; imetit 10 mg/kg i.v. single dose, vs control)	impulsiveness in tapping the lever to obtain reward in the first 20 minutes of extinction (cocaine craving; imetit 10 mg/kg i.v. single dose, vs control rats)	latency (time until first lever press) on resumption of self-administration ([3]; imetit 10 mg/kg i.v. pretreatment, vs control, rats)	decrease in number of times the rats tapped the lever during the start of the self-administration phase ([3]; imetit 10 mg/kg pretreatment, vs saline)	period of the self-administration phase over which the decrease in lever tapping was significant ([3]; imetit 10 mg/kg pretreatment, vs saline, rats)	tendency to seek cocaine (self-injections in 2 hours) ([4]; imetit 3 mg/kg single dose one hour before reinforcement, even at 0.03 mg/kg cocaine)	lever pressing after relapse induced by a reminder dose of cocaine ([2]; thioperamide 3 mg/kg s.c. or 6 mg/kg, one hour before, cocaine 0.5 or 2 mg/kg)	reinforcement produced by cocaine (self-injections in 2 hours) ([4]; thioperamide 3 mg/kg s.c. one hour before, cocaine 0-1.0 mg/kg per injection)
NC(=NCc1ccc(Cl)cc1)SCCCc1cnc[nH]1 [clobenpropit]	potentiate the reinforcing effects										
N=C(N)SCCc1cnc[nH]1 [imetit]		caused a decrease in the pressing on the lever; also recorded: diminished significantly	did not cause a significant reduction	significantly increased; also recorded: increase in latency	significantly diminished	significantly increased	approximately 50%	40 min	diminished the tendency to seek cocaine; also recorded: self-administer less cocaine		
S=C(NC1CCCCC1)N1CCC(c2cnc[nH]2)CC1 [thioperamide]	potentiate the reinforcing effects									did not potentiate the rehabilitation; also recorded: does not produce a significant decline	no significant increase
